The results in this text go back to ChEMBL document CHEMBL1649179, “Pharmacokinetics of LB80331 and LB80317 following oral administration of LB80380, a new antiviral agent for chronic hepatitis B (CHB), in healthy adult subjects, CHB patients, and mice” (Antimicrob Agents Chemother, 2009).

The subject of data set [1] is Homo sapiens. The data set is described as follows: Toxicity in chronic hepatitis B virus infected patient assessed as serum ALT level at 240 mg, po qd for 4 weeks by LC-MS analysis. The format is organism-based. Conditions: in vivo, 672 h.
The subject of data set [2] is Hepatitis B virus. The data set is described as follows: Antiviral activity against hepatitis B virus infected in human assessed as log reduction in viral titer per ml of serum at 240 mg, po qd for 4 weeks. It is filed as functional.
For data set [3], the system named is Homo sapiens. The data set is described as follows: Toxicity in chronic hepatitis B virus infected patient assessed as serum ALT level at 30 mg, po qd for 4 weeks by LC-MS analysis. It is filed as organism-based. To be noted: in vivo, 672 h.
The subject of data set [4] is Homo sapiens. The data set is described as follows: Toxicity in chronic hepatitis B virus infected patient assessed as serum ALT level at 60 mg, po qd for 4 weeks by LC-MS analysis. The format is organism-based. To be noted: in vivo, 672 h.
Data set [5] has as its system Hepatitis B virus. The data set is described as follows: Antiviral activity against hepatitis B virus infected in human assessed as log reduction in viral titer per ml of serum at 30 mg, po qd for 4 weeks. The format is functional.
For data set [6], the system named is Homo sapiens. The data set is described as follows: Toxicity in chronic hepatitis B virus infected patient assessed as serum ALT level at 120 mg, po qd for 4 weeks by LC-MS analysis. The format is organism-based. To be noted: in vivo, 672 h.

As to `CC(C)(C)C(=O)OCOP(=O)(COC1(Cn2cnc3cnc(N)nc32)CC1)OCOC(=O)C(C)(C)C` [LB80380], the Activity in the data set on Homo sapiens [1] came out at 27 U/L; with Homo sapiens [3], 79.5 U/L; in the data set on Homo sapiens [4], 68.7 U/L; in the data set with Homo sapiens [6], 34.5 U/L. The results for the FC with Hepatitis B virus [2] and in the data set on Hepatitis B virus [5] were 3.8 and 3.02, respectively.
